Data as given in PMC9692552, “Activity and Synergy of Cu-ATCUN Antimicrobial Peptides” (International Journal of Molecular Sciences, 2022).
Converted amounts (≈) assume the structure as drawn. “And” between values parts separate entries of the source, which are not always exact repeats. Equal entries are not always repeated. Where two headings read alike, the source gives them in different places. Ends that are not written are not given here. Peptide text beside a SMILES is read from it.

Columns and labels:
E. coli 25922 [1] = assay: FIC of peptide pairs (two-way dilution, 96-well plate); assay type: cell-based, Escherichia coli; conditions: single peptide on the FIC plate, initial screen, one value given
Method: Determining MIC values informed decisions on testing peptides in combination. Fractional inhibitory concentrations determine the ability of test articles to act in concert against a pathogen. FIC determination is experimentally similar to MIC determination, except one test article is diluted down the wells and another is diluted across the wells of the 96-well plate in order to test the synergism of two peptides. […] Synergy is defined as an FIC of less than or equal to 0.5, meaning there is a four-fold reduction in the concentration of each peptide required for inhibition. Any number above 4 indicates a deleterious interaction that reduces the effectiveness of each peptide, and a value between 0.5 and 1 can be considered additive (Equation (2)).
Fractional inhibitory concentrations (FICs) were determined in a manner similar to MIC determinations but with serial dilutions of two peptides running both horizontally and vertically across the 96-well plate. Determination of the FIC can be seen in Equation (2), where FIC is the fractional inhibitory concentration, [A] is the concentration of substrate A at MIC in combination, [B] is the concentration of substrate B at MIC in combination, and MICA and MICB are the MIC of substrate A and substrate B, respectively. FIC = fractional inhibitory concentration, [A] = concentration of A at MIC in combination, [B] = concentration of B at MIC in combination, MICA = minimum inhibitory concentration of A, and MICB = minimum inhibitory concentration of B. When FIC ≤ 0.5 the results are synergistic. If FIC > 4, the results are antagonistic, and when FIC > 0.5, the results are indifferent or additive. (2) FIC=[A]/MICA+ [B]/MICB

E. faecium 700221 (VRE) = assay type: cell-based
Method: (§1) The minimum inhibitory concentration of a peptide is the concentration at which no observable bacterial growth can be determined by visual inspection. MIC values are useful for determining the potential of a test article as a therapeutic, as well as in comparison to other test articles. A variety of antimicrobial peptides were tested for activity against an array of clinically relevant bacterial strains. The sequences of SMAP-29 derivatives and their key features can be seen in Table 1, with peptides being named in reference to how they were originally published. Peptides OV3-00 and OV3-01 were utilized in this study. Because the template (or parental) peptide, SMAP-29, derived from sheep leukocytes, is hemolytic to human red blood cells, efforts were made to enhance the therapeutic index of the peptide leading to the creation of OV and OV3 [14, 19]. Various derivatives were made and OV3 came to represent two distinct peptides in the literature: the peptide labeled OV3 and a peptide with an additional c-terminal YG, herein labeled OV3-00. Previous work in our laboratory utilized OV3 for the design and synthesis of ATCUN domain peptides, but it lacks a tryptophan or tyrosine residue that allows for more ready quantification of the peptide concentration by the extinction coefficient, leading to a less accurate, more difficult, concentration analysis by mass spectrometry. To ease quantification and facilitate studies on the OV3 series in our laboratory, and compare the effect of the added YG, additional work was pursued using the longer OV3-00 and OV3-01 derivatives.
(§2) Minimum inhibitory concentrations (MICs) of test molecules were established by broth dilution assays. Mid-log phase bacterial cultures of a variety of clinically important organisms were diluted and incubated with a serial dilution of each peptide, starting at 128 µM. The concentration of peptide at which no visible growth occurred was marked as the MIC. Bacterial strains were incubated in Mueller–Hinton Broth (MHB) at 37 degrees Celsius until the OD600 reached between 0.8 and 1. The resulting culture was subsequently diluted 100× into 96-well plates with the test articles. Positive and negative controls containing only MHB incubated with bacteria and MHB, respectively, were also included on the plate. Each 96-well plate was incubated for 16–20 h, and the MIC was determined by visual inspection. To determine the colony-forming units (CFUs) present in each assay, 100 µL of the 100× diluted culture was further diluted by 1000× and plated on agar plates and determined by use of Equation (1). The colonies were counted to ensure that the CFU value was between 10^4 and 10^5. CFU/mL = (mean # of colonies/0.1 mL) (1000 (dilution factor))(1)

K. pneumoniae 700603 = assay type: cell-based
Method: as §1, §2

S. aureus 43300 (MRSA) = assay type: cell-based
Method: as §1, §2

P. aeruginosa 27583 = assay type: cell-based
Method: as §1, §2

E. coli 25922 [2] = assay type: cell-based, Escherichia coli
Method: as §1, §2

A. baumannii BAA747 = assay type: cell-based, Acinetobacter baumannii
Method: as §1, §2

Compound | MICA/MICB, concentration with no growth when dosed separately (E. coli 25922 [1]) | MIC (E. faecium 700221 (VRE); 700221 (VRE)) [µM] | MIC (K. pneumoniae 700603; 700603) [µM] | MIC (S. aureus 43300 (MRSA); 43300) [µM] | MIC (P. aeruginosa 27583; 27583) [µM] | MIC (E. coli 25922 [2]; 25922) [µM] | MIC (A. baumannii BAA747; BAA747) [µM] | MIC (E. faecium 700221 (VRE); E. faecium 700221 (VRE), Gram (+), broth dilution in MHB, 37 °C, 16–20 h, visual inspection) [µM] | MIC (K. pneumoniae 700603; K. pneumoniae 700603, Gram (-), broth dilution in MHB, 37 °C, 16–20 h, visual inspection) [µM] | MIC (S. aureus 43300 (MRSA); S. aureus 43300 (MRSA), Gram (+), broth dilution in MHB, 37 °C, 16–20 h, visual inspection) [µM] | MIC (P. aeruginosa 27583; P. aeruginosa 27583, Gram (-), broth dilution in MHB, 37 °C, 16–20 h, visual inspection) [µM] | MIC (E. coli 25922 [2]; E. coli 25922, Gram (-), broth dilution in MHB, 37 °C, 16–20 h, visual inspection, dilution from 128 µM) [µM] | MIC (A. baumannii BAA747; A. baumannii BAA747, Gram (-), broth dilution in MHB, 37 °C, 16–20 h, visual inspection) [µM]
GGHGVRRFPWWWPFLRRGGC-NH2 [TRP-03, ATCUN derivative of tritrpticin] | 16 µM |  |  |  |  |  |  |  |  |  |  |  | 
FVQWFSKFLGRIL-NH2 [TempL] |  | 8 | 16 | 4 | 32 | 4 | 4 |  |  |  |  |  | 
GGHYLGALLGPLMNLLQ-NH2 [PFQα-01] |  | >128 | >128 | 16 | >128 | >128 | 128 |  |  |  |  |  | 
GGHIRRIIRKIIHIIKKYG-NH2 [OV3-01] |  | 4 | 16 | 16 | 16 | 4 | 8 |  |  |  |  |  | 
CC[C@H](C)[C@H](NC(=O)[C@H](Cc1c[nH]cn1)NC(=O)CNC(=O)CN)C(=O)N[C@@H](CC(C)C)C(=O)N1CCC[C@H]1C(=O)N[C@@H](Cc1c[nH]c2ccccc12)C(=O)N[C@@H](CCCCN)C(=O)N[C@@H](Cc1c[nH]c2ccccc12)C(=O)N1CCC[C@H]1C(=O)N[C@@H](Cc1c[nH]c2ccccc12)C(=O)N[C@@H](Cc1c[nH]c2ccccc12)C(=O)N1CCC[C@H]1C(=O)N[C@@H](Cc1c[nH]c2ccccc12)C(=O)N[C@@H](CCCNC(=N)N)C(=O)N[C@@H](CCCNC(=N)N)C(=O)NCC(=O)NCC(=O)N[C@@H](CS)C(N)=O [IND-01] |  | 8 (≈ 19 µg/mL) | >64 | 64 (≈ 152 µg/mL) | >64 | 32 (≈ 76 µg/mL) | 32 (≈ 76 µg/mL) |  |  |  |  |  | 
GILAWKWAWWAWRR-NH2 [CP10A] |  | 8 | 32 | 4 | 64 | 16 | 8 |  |  |  |  |  | 
IRRIIRKIIHIIKKYG-NH2 [OV3-00] |  | 4 | 4 | 8 | 16 | 2 | 4 |  |  |  |  |  | 
GGHGVRRFPWWWPFLRR-NH2 [TRP-02, ATCUN derivative of tritrpticin] | 8 µM and 16 µM |  |  |  |  |  |  |  |  |  |  |  | 
GGHVRRFPWWWPFLRRGGC-NH2 [TRP-01] |  | 8 | 32 | 32 | 64 | 32 | 16 |  |  |  |  |  | 
GGHGIGKFLHSAKKWGKAFVGEIMNS-NH2 [Mag2-01] |  | 32 | 64 | >128 | 64 | 16 | 8 |  |  |  |  |  | 
CC(C)C[C@H](NC(=O)[C@H](Cc1ccccc1)NC(=O)[C@@H]1CCCN1C(=O)[C@H](Cc1c[nH]c2ccccc12)NC(=O)[C@H](Cc1c[nH]c2ccccc12)NC(=O)[C@H](Cc1c[nH]c2ccccc12)NC(=O)[C@@H]1CCCN1C(=O)[C@H](Cc1ccccc1)NC(=O)[C@H](CCCNC(=N)N)NC(=O)[C@H](CCCNC(=N)N)NC(=O)[C@@H](N)C(C)C)C(=O)N[C@@H](CCCNC(=N)N)C(=O)N[C@@H](CCCNC(=N)N)C(N)=O [TRP, tritrpticin] |  | 2 (≈ 3.8 µg/mL) | 32 (≈ 60.8 µg/mL) | 8 (≈ 15.2 µg/mL) | 16 (≈ 30.4 µg/mL) | 8 (≈ 15.2 µg/mL) | 8 (≈ 15.2 µg/mL) |  |  |  |  |  | 
NCC(=O)NCC(=O)N[C@@H](Cc1c[nH]cn1)C(N)=O [GGH] (H-Gly-Gly-His-NH2) |  | >128 | >128 | >128 | >128 | >128 | >128 |  |  |  |  |  | 
CC[C@H](C)[C@H](NC(=O)[C@H](CC(C)C)NC(=O)[C@H](C)NC(=O)[C@@H]1CCCN1C(=O)[C@H](CC(C)C)NC(=O)CNC(=O)[C@@H](NC(=O)[C@@H](NC(=O)[C@H](CC(C)C)NC(=O)[C@@H](NC(=O)[C@H](CCCCN)NC(=O)[C@H](CCCCN)NC(=O)[C@@H](NC(=O)[C@H](C)NC(=O)[C@@H](NC(=O)[C@@H](NC(=O)[C@H](CC(C)C)NC(=O)[C@H](CCCCN)NC(=O)[C@H](CCCCN)NC(=O)[C@@H](NC(=O)[C@H](Cc1ccccc1)NC(=O)[C@H](CO)NC(=O)[C@H](CCCCN)NC(=O)[C@H](Cc1c[nH]c2ccccc12)NC(=O)[C@H](CCCCN)NC(=O)[C@H](Cc1c[nH]cn1)NC(=O)CNC(=O)CN)[C@@H](C)CC)[C@@H](C)O)[C@@H](C)O)C(C)C)C(C)C)[C@@H](C)O)[C@@H](C)O)C(=O)N[C@@H](CO)C(N)=O [CP29-01] |  |  |  |  |  |  |  | 4 (≈ 12.5 µg/mL) | 8 (≈ 25 µg/mL) | 16 (≈ 50 µg/mL) | 2 (≈ 6.25 µg/mL) | 8 (≈ 25 µg/mL) | 1 (≈ 3.12 µg/mL)
